Laboratory results as given in publication PMC7765500, “Siderophore Scaffold as Carrier for Antifungal Peptides in Therapy of Aspergillus fumigatus Infections” (Journal of Fungi, 2020).
≈ marks a conversion by molar mass, not a printed value. Read-outs that look alike come from different tables or passages of the source. Blank lines part the entries; values can stand above or below the compound they belong to. Square brackets hold non-standard residues; d marks the D form. Ends that are not written are not given here. Peptide text beside a SMILES is read from it.

How the values were obtained:
[1] = tested on: A. fumigatus (ATCC 46645); assay type: cell-based, Aspergillus fumigatus
Description: (§1) Susceptibility tests were performed according to CLSI guidelines with slight modifications. In brief, 96-well plates (Greiner Bio-One GmbH) were prepared with 100 μL of 2 × AMM (Aspergillus minimal medium) or 0.2 × Potato Dextrose Broth (PDB) containing 3 × 10^4 spores of A. fumigatus (ATCC 46645) per well. An amount of 100μL antifungal, dissolved in water, was added to get a final concentration of 1 × AMM/0.1 × PDB medium and antifungal concentration ranging from 0.031–16 μg/mL.

[2] = tested on: A. fumigatus (ATCC 46645); assay type: cell-based, Aspergillus fumigatus; conditions: 0.1 × PDB
Description: as §1

[3] = tested on: A. fumigatus mutant strain ΔsidA/ΔftrA; experiment: Growth promotion assay; assay type: cell-based, Aspergillus fumigatus; conditions: 72 h, 37 °C
Source text: To assess the capability of A. fumigatus to utilize the modified siderophores, a mutant strain (ΔsidA/ΔftrA) that lacks the genes sidA and ftrA was used. These mutations impair both siderophore-mediated iron acquisition and reductive iron assimilation, in other words, high-affinity iron acquisition. If the activity of externally supplied siderophore was still intact, similar growth to [Fe]TAFC should be observed, however, in the case of growth reduction, it cannot be distinguished from antifungal activity. Spores (10^4) were point inoculated on solid 0.5 mL of AMM [26] in 24-well plates containing increasing concentrations of iron labelled siderophore ranging from 0.1–50 μM. Plates were incubated for 72 h at 37 °C in a humidity chamber and visually assessed.

[4] = cited from earlier work
[5] = iron-depleted AMM, 0.1–50 µM tested

- MIC 24 h ([1]; AMM, 37 °C, 24 h): >16 µg/mL
- MIC 48 h ([1]; AMM, 37 °C): >16 µg/mL
- MIC 24 h ([1]; ATCC 46645, 24 h): >16.1 µM
- MIC 24 h ([2]; 37 °C, 24 h): 16 µg/mL (≈ 16.1 µM)
- MIC 48 h ([2]; 37 °C, 48 h): >16 µg/mL
Compound: CC(=O)N[C@H](CCCNC(=N)N)C(=O)N[C@H](CCCCN)C(=O)N[C@H](CCCCN)C(=O)N[C@H](Cc1c[nH]c2ccccc12)C(=O)N[C@H](Cc1ccccc1)C(=O)N[C@H](Cc1c[nH]c2ccccc12)C(N)=O [H2N-D-PAF26-Ac] (Ac-[dR][dK][dK][dW][dF][dW]-NH2)

- MIC 24 h ([1]; AMM, 37 °C, 24 h): >16 µg/mL
- MIC 48 h ([1]; AMM, 37 °C): >16 µg/mL
- MIC 24 h ([1]; ATCC 46645, 24 h): >36.8 µM
Compound: CC(=O)N[C@@H](CC(N)=O)C(=O)N[C@@H](CC(C)C)C(=O)N[C@H](Cc1ccccc1)C(=O)O [HOOC-NLF-Ac] (Ac-Asn-Leu-[dF]-OH)

- MIC / growth inhibition ([2]; incubation time not given): 8 µg/mL (≈ 8.07 µM)
Compound: CC(=O)N[C@H](CCCNC(=N)N)C(=O)N[C@H](CCCCN)C(=O)N[C@H](CCCCN)C(=O)N[C@H](Cc1c[nH]c2ccccc12)C(=O)N[C@H](Cc1ccccc1)C(=O)N[C@H](Cc1c[nH]c2ccccc12)C(N)=O [PAF26, Ac-dArg-dLys-dLys-dTrp-dPhe-dTrp-NH2, reference compound] (Ac-[dR][dK][dK][dW][dF][dW]-NH2)

Compound: CC(=O)NC1CCCN(O)C(=O)/C=C(/C)CCOC(=O)C(NC(=O)CCC(=O)N[C@@H](CCCNC(=N)N)C(=O)N[C@@H](CCCCN)C(=O)N[C@@H](CCCCN)C(=O)N[C@@H](Cc2c[nH]c3ccccc23)C(=O)N[C@@H](Cc2ccccc2)C(=O)N[C@@H](Cc2c[nH]c3ccccc23)C(N)=O)CCCN(O)C(=O)/C=C(/C)CCOC(=O)C(NC(C)=O)CCCN(O)C(=O)/C=C(/C)CCOC1=O (stereo partly drawn) [[Fe]DAFC-L-PAF26]
- MIC 24 h ([1]; AMM, 37 °C, 24 h): >16 µg/mL
- MIC 48 h ([1]; AMM, 37 °C): >16 µg/mL
- MIC 24 h ([1]; ATCC 46645, 24 h): >8.4 µM
- Growth promotion (in words) ([3]; visually assessed): low hyphal growth without sporulation

Compound: CC(=O)NC1CCCN(O)C(=O)/C=C(/C)CCOC(=O)C(NC(=O)[C@@H](Cc2ccccc2)NC(=O)[C@H](CC(C)C)NC(=O)[C@H](CC(N)=O)NC(C)=O)CCCN(O)C(=O)/C=C(/C)CCOC(=O)C(NC(C)=O)CCCN(O)C(=O)/C=C(/C)CCOC1=O (some centres unmarked) [[Fe]DAFC-NLF-Ac]
- MIC 24 h ([1]; AMM, 37 °C, 24 h): >16 µg/mL
- MIC 48 h ([1]; AMM, 37 °C): >16 µg/mL
- MIC 24 h ([1]; ATCC 46645, 24 h): >12.5 µM
- Antifungal activity lacking up to ([1]; medium and time not given): > 16 µg/mL
- Concentration of sporulation [3, 5]: 50 µM

Compound: H-Asn-Leu-[dF]-OH [NLF]
- Antifungal activity (in words) ([1]; AMM, 0.031–16 µg/mL tested): lacked antifungal potential

- MIC 24 h ([1]; AMM, 37 °C, 24 h): >16 µg/mL
- MIC 48 h ([1]; AMM, 37 °C): >16 µg/mL
- MIC 24 h ([1]; ATCC 46645, 24 h): >16.8 µM
Compound: RKKWFW [HOOC-L-PAF26-NH2]

Compound: triacetylfusarinine C [[Fe]TAFC, reference compound]
- Concentration of growth induction / utilization [3, 5]: 0.1 µM
- Concentration of sporulation [3, 5]: 10 µM

Compound: triacetylfusarinine C [[^68Ga]Ga-TAFC]
- Biodistribution Blood 30 min ([4]; BALB/c mice, 30 min, blood): 1.60 ± 0.37 %ID/g
- Biodistribution Femur 30 min ([4]; BALB/c mice, 30 min, femur): 0.51 ± 0.79 %ID/g
- Biodistribution Heart 30 min ([4]; BALB/c mice, 30 min, heart): 0.67 ± 0.16 %ID/g
- Biodistribution Intestine 30 min ([4]; BALB/c mice, 30 min, intestine): 1.71 ± 10.04 %ID/g
- Biodistribution Kidneys 30 min ([4]; BALB/c mice, 30 min, kidneys): 5.51 ± 1.22 %ID/g
- Biodistribution Liver 30 min ([4]; BALB/c mice, 30 min, liver): 0.70 ± 0.04 %ID/g
- Biodistribution Lung 30 min ([4]; BALB/c mice, 30 min, lung): 1.54 ± 0.27 %ID/g
- Biodistribution Muscle 30 min ([4]; BALB/c mice, 30 min, muscle): 0.52 ± 0.25 %ID/g
- Biodistribution Pancreas 30 min ([4]; BALB/c mice, 30 min, pancreas): 0.42 ± 0.16 %ID/g
- Biodistribution Spleen 30 min ([4]; BALB/c mice, 30 min, spleen): 0.38 ± 0.11 %ID/g
- Biodistribution Stomach 30 min ([4]; BALB/c mice, 30 min, stomach): 0.77 ± 0.22 %ID/g
- Biodistribution Blood 90 min ([4]; BALB/c mice, 90 min, blood): 0.06 ± 0.04 %ID/g
- Biodistribution Femur 90 min ([4]; BALB/c mice, 90 min, femur): 0.15 ± 0.20 %ID/g
- Biodistribution Heart 90 min ([4]; BALB/c mice, 90 min, heart): 0.03 ± 0.01 %ID/g
- Biodistribution Intestine 90 min ([4]; BALB/c mice, 90 min, intestine): 1.03 ± 0.26 %ID/g
- Biodistribution Kidneys 90 min ([4]; BALB/c mice, 90 min, kidneys): 1.27 ± 0.39 %ID/g
- Biodistribution Liver 90 min ([4]; BALB/c mice, 90 min, liver): 0.15 ± 0.09 %ID/g
- Biodistribution Lung 90 min ([4]; BALB/c mice, 90 min, lung): 0.10 ± 0.03 %ID/g
- Biodistribution Muscle 90 min ([4]; BALB/c mice, 90 min, muscle): 0.03 ± 0.01 %ID/g
- Biodistribution Pancreas 90 min ([4]; BALB/c mice, 90 min, pancreas): 0.04 ± 0.01 %ID/g
- Biodistribution Spleen 90 min ([4]; BALB/c mice, 90 min, spleen): 0.05 ± 0.02 %ID/g
- Biodistribution Stomach 90 min ([4]; BALB/c mice, 90 min, stomach): 0.06 ± 0.02 %ID/g
- Metabolites on excretion through the urinary tract (in words) [4]: no metabolites detected
